Test results: ChEMBL document CHEMBL1134887, “Muraymycins, novel peptidoglycan biosynthesis inhibitors: semisynthesis and SAR of their derivatives” (Bioorg Med Chem Lett, 2002)
Activity calls are given as the source filed them. The calls are words filed in the database; no cut-off is given here.

Legend:
Type in all cases: functional
[1] = test system: Staphylococcus epidermidis; test: Compound was tested for reduction in the production of lipid II relative to the control(judged by intensity) on the film, inhibition of either MraY or MurG at a dose of 100 ug/mL
[2] = test system: Staphylococcus epidermidis; test: Compound was tested for reduction in the production of lipid II relative to the control(judged by intensity) on the film, inhibition of either MraY or MurG at a dose of 6.25 ug/mL
[3] = test system: Staphylococcus epidermidis; test: Compound was tested for reduction in the production of lipid II relative to the control(judged by intensity) on the film, inhibition of either MraY or MurG at a dose of 25 ug/mL
[4] = test system: Staphylococcus epidermidis; test: Compound was tested for reduction in the production of lipid II relative to the control(judged by intensity) on the film, inhibition of either MraY or MurG at a dose of 50 ug/mL
[5] = test system: Staphylococcus epidermidis; test: Inhibitory activity against MraY/MurG at a concentration of 25 ug/mL; No activity
[6] = test system: Staphylococcus epidermidis; test: Inhibitory activity against MraY/MurG at a concentration of 6.25 ug/mL; No activity
[7] = test system: Staphylococcus epidermidis; test: Inhibitory activity against MraY/MurG at a concentration of 50 ug/mL; No activity
[8] = test system: Staphylococcus epidermidis; test: Inhibitory activity against MraY/MurG at a concentration of 100 ug/mL; No activity
[9] = test system: Staphylococcus epidermidis; test: Inhibitory activity against MraY/MurG at a concentration of 6.25 ug/mL No activity
[10] = test system: Staphylococcus epidermidis; test: Inhibitory activity against MraY/MurG at a concentration of 6.25 ug/mL; Not activity
[11] = test system: Staphylococcus epidermidis; test: Inhibitory activity against MraY/MurG at a concentration of 100 ug/mL; Not activity

CCCCCCCCCCCCN1C(=O)C(C(O[C@@H]2O[C@H](CN)[C@@H](O)[C@H]2OC)[C@H]2O[C@@H](n3ccc(=O)[nH]c3=O)[C@H](O)[C@@H]2O)N(CCCNC(=O)[C@@H](NC(=O)[C@@H](NC(=O)N[C@H](C(=O)O)C(C)C)[C@@H]2CCN=C(N)N2)[C@@H](O)C(C)C)C1=O (some centres undefined)
Inhibitory activity [1]: Active
Inhibitory activity [2]: Active
Inhibitory activity [3]: Active
Inhibitory activity [4]: Active

CO[C@H]1[C@H](OC([C@H]2O[C@@H](n3ccc(=O)[nH]c3=O)[C@H](O)[C@@H]2O)[C@@H](C(=O)O)N(CCCNC(=O)[C@@H](NC(=O)[C@@H](NC(=O)N[C@H](C(=O)O)C(C)C)[C@@H]2CCN=C(N)N2)[C@@H](O)C(C)C)Cc2ccc(-c3ccccc3)cc2)O[C@H](CNCc2ccc(-c3ccccc3)cc2)[C@H]1O (some centres undefined)
Inhibitory activity [5]: Active
Inhibitory activity [6]: Active
Inhibitory activity [7]: Active
Inhibitory activity [8]: Active

CCCCCCCCCCCCN(CCCNC(=O)[C@@H](NC(=O)[C@@H](NC(=O)N[C@H](C(=O)O)C(C)C)[C@@H]1CCN=C(N)N1)[C@@H](O)C(C)C)[C@H](C(=O)O)C(O[C@@H]1O[C@H](CN)[C@@H](O)[C@H]1OC)[C@H]1O[C@@H](n2ccc(=O)[nH]c2=O)[C@H](O)[C@@H]1O (some centres undefined)
Inhibitory activity [1]: Active
Inhibitory activity [5]: inactive
Inhibitory activity [9]: inactive
Inhibitory activity [4]: Active

CO[C@H]1[C@H](OC([C@H]2O[C@@H](n3ccc(=O)[nH]c3=O)[C@H](O)[C@@H]2O)[C@@H](C(=O)O)N(CCCCCCCCCCCCN2CCOCC2)CCCNC(=O)[C@@H](NC(=O)[C@@H](NC(=O)N[C@H](C(=O)O)C(C)C)[C@@H]2CCN=C(N)N2)[C@@H](O)C(C)C)O[C@H](CN)[C@H]1O (some centres undefined)
Inhibitory activity [1]: Active
Inhibitory activity [5]: inactive
Inhibitory activity [6]: inactive
Inhibitory activity [7]: Active

COc1ccc(NC(=O)NC[C@H]2O[C@@H](OC(C3C(=O)N(c4ccc(OC)cc4)C(=O)N3CCCNC(=O)[C@@H](NC(=O)[C@@H](NC(=O)N[C@H](C(=O)O)C(C)C)[C@@H]3CCN=C(N)N3)[C@@H](O)C(C)C)[C@H]3O[C@@H](n4ccc(=O)[nH]c4=O)[C@H](O)[C@@H]3O)[C@H](OC)[C@@H]2O)cc1 (some centres undefined)
Inhibitory activity [5]: Active
Inhibitory activity [6]: Active
Inhibitory activity [7]: Active
Inhibitory activity [8]: Active

CCCCCN(CCCNC(=O)[C@@H](NC(=O)[C@@H](NC(=O)N[C@H](C(=O)O)C(C)C)[C@@H]1CCN=C(N)N1)[C@@H](O)C(C)C)[C@H](C(=O)O)C(O[C@@H]1O[C@H](CN)[C@@H](O)[C@H]1OC)[C@H]1O[C@@H](n2ccc(=O)[nH]c2=O)[C@H](O)[C@@H]1O (some centres undefined)
Inhibitory activity [1]: Active
Inhibitory activity [5]: inactive
Inhibitory activity [6]: inactive
Inhibitory activity [7]: Active

CO[C@H]1[C@H](OC(C2C(=O)N(Cc3ccccc3)C(=O)N2CCCNC(=O)[C@@H](NC(=O)[C@@H](NC(=O)N[C@H](C(=O)O)C(C)C)[C@@H]2CCN=C(N)N2)[C@@H](O)C(C)C)[C@H]2O[C@@H](n3ccc(=O)[nH]c3=O)[C@H](O)[C@@H]2O)O[C@H](CN)[C@H]1O (some centres undefined)
Inhibitory activity [1]: Active
Inhibitory activity [2]: Active
Inhibitory activity [3]: Active
Inhibitory activity [4]: Active

CCCCCCCCCCCCNC(=O)NC[C@H]1O[C@@H](OC(C2C(=O)N(CCCCCCCCCCCC)C(=O)N2CCCNC(=O)[C@@H](NC(=O)[C@@H](NC(=O)N[C@H](C(=O)O)C(C)C)[C@@H]2CCN=C(N)N2)[C@@H](O)C(C)C)[C@H]2O[C@@H](n3ccc(=O)[nH]c3=O)[C@H](O)[C@@H]2O)[C@H](OC)[C@@H]1O (some centres undefined)
Inhibitory activity [5]: Active
Inhibitory activity [6]: Active
Inhibitory activity [7]: Active
Inhibitory activity [8]: Active

CO[C@H]1[C@H](OC([C@H](NCCCNC(=O)[C@@H](NC(=O)[C@@H](NC(=O)N[C@H](C(=O)O)C(C)C)[C@@H]2CCN=C(N)N2)[C@@H](O)C(C)C)C(=O)O)[C@H]2O[C@@H](n3ccc(=O)[nH]c3=O)[C@H](O)[C@@H]2O)O[C@H](CN)[C@H]1O (some centres undefined)
Inhibitory activity [1]: Active
Inhibitory activity [2]: Active
Inhibitory activity [3]: Active
Inhibitory activity [4]: Active

CCCCCCNC(=O)NC[C@H]1O[C@@H](OC(C2C(=O)N(CCCCCC)C(=O)N2CCCNC(=O)[C@@H](NC(=O)[C@@H](NC(=O)N[C@H](C(=O)O)C(C)C)[C@@H]2CCN=C(N)N2)[C@@H](O)C(C)C)[C@H]2O[C@@H](n3ccc(=O)[nH]c3=O)[C@H](O)[C@@H]2O)[C@H](OC)[C@@H]1O (some centres undefined)
Inhibitory activity [5]: Active
Inhibitory activity [6]: Active
Inhibitory activity [7]: Active
Inhibitory activity [8]: Active

CCCCCN1C(=O)C(C(O[C@@H]2O[C@H](CN)[C@@H](O)[C@H]2OC)[C@H]2O[C@@H](n3ccc(=O)[nH]c3=O)[C@H](O)[C@@H]2O)N(CCCNC(=O)[C@@H](NC(=O)[C@@H](NC(=O)N[C@H](C(=O)O)C(C)C)[C@@H]2CCN=C(N)N2)[C@@H](O)C(C)C)C1=O (some centres undefined)
Inhibitory activity [1]: Active
Inhibitory activity [5]: inactive
Inhibitory activity [6]: inactive
Inhibitory activity [7]: Active

CO[C@H]1[C@H](OC(C2C(=O)N(c3ccc(F)cc3)C(=O)N2CCCNC(=O)[C@@H](NC(=O)[C@@H](NC(=O)N[C@H](C(=O)O)C(C)C)[C@@H]2CCN=C(N)N2)[C@@H](O)C(C)C)[C@H]2O[C@@H](n3ccc(=O)[nH]c3=O)[C@H](O)[C@@H]2O)O[C@H](CNC(=O)Nc2ccc(F)cc2)[C@H]1O (some centres undefined)
Inhibitory activity [5]: Active
Inhibitory activity [6]: Active
Inhibitory activity [7]: Active
Inhibitory activity [8]: Active

CCCCCNC[C@H]1O[C@@H](OC([C@H]2O[C@@H](n3ccc(=O)[nH]c3=O)[C@H](O)[C@@H]2O)[C@@H](C(=O)O)N(CCCCC)CCCNC(=O)[C@@H](NC(=O)[C@@H](NC(=O)N[C@H](C(=O)O)C(C)C)[C@@H]2CCN=C(N)N2)[C@@H](O)C(C)C)[C@H](OC)[C@@H]1O (some centres undefined)
Inhibitory activity [5]: inactive
Inhibitory activity [6]: inactive
Inhibitory activity [7]: inactive
Inhibitory activity [8]: inactive

CO[C@H]1[C@H](OC(C2C(=O)N(c3ccc(F)cc3)C(=O)N2CCCNC(=O)[C@@H](NC(=O)[C@@H](NC(=O)N[C@H](C(=O)O)C(C)C)[C@@H]2CCN=C(N)N2)[C@@H](O)C(C)C)[C@H]2O[C@@H](n3ccc(=O)[nH]c3=O)[C@H](O)[C@@H]2O)O[C@H](CN)[C@H]1O (some centres undefined)
Inhibitory activity [1]: Active
Inhibitory activity [3]: Active
Inhibitory activity [4]: Active
Inhibitory activity [10]: Active

CCCCCCCCNC(=O)NC[C@H]1O[C@@H](OC(C2C(=O)N(CCCCCCCC)C(=O)N2CCCNC(=O)[C@@H](NC(=O)[C@@H](NC(=O)N[C@H](C(=O)O)C(C)C)[C@@H]2CCN=C(N)N2)[C@@H](O)C(C)C)[C@H]2O[C@@H](n3ccc(=O)[nH]c3=O)[C@H](O)[C@@H]2O)[C@H](OC)[C@@H]1O (some centres undefined)
Inhibitory activity [5]: Active
Inhibitory activity [6]: Active
Inhibitory activity [7]: Active
Inhibitory activity [11]: Active

CO[C@H]1[C@H](OC([C@H](NCCCNC(=O)[C@@H](NC(=O)[C@@H](NC(=O)N[C@H](C(=O)O)C(C)C)[C@@H]2CCN=C(N)N2)[C@@H](O)C(C)C)C(=O)O)[C@H]2O[C@@H](n3ccc(=O)[nH]c3=O)[C@H](O)[C@@H]2O)O[C@H](C/N=C(C)/C=C(/C)O)[C@H]1O (some centres undefined)
Inhibitory activity [5]: Active
Inhibitory activity [6]: Active
Inhibitory activity [7]: Active
Inhibitory activity [8]: Active
